Assay results reported in patent US20230009626A1 (ICHNOS SCIENCES S.A., priority 2018, published 2023).

Target: HPK1 (MAP4K1) (Homo sapiens, UniProt Q92918)
Assay: FRET Assay for HPK1 (MAP4K1): one step binding assay, displacement of labeled tracer
Conditions: for inhibition at 1 µM: 1 μM compound; for inhibition at 1 µM / inhibition at 10 µM: FRET ratio 665/620, percent of control; for inhibition at 10 µM: 10 μM compound; for IC50: dose response curve, nonlinear regression
Method in brief: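 TR-FRET tracer-displacement binding assay. GST-tagged HPK1 (10 nM) and Eu-anti-GST antibody (4 nM) were pre-incubated with compound on ice for 15 min in 50 mM HEPES pH 7.5, 10 mM MgCl2, 1 mM EGTA, 0.01% Brij-35 (3% DMSO final). Kinase Tracer 222 (20 nM) was then added for 1 h at room temperature. IC50 came from nonlinear regression of percent of control; percent inhibition was also given at 1.0 and 10.0 μM.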

Sequence of HPK1 (MAP4K1) (Q92918 whole entry): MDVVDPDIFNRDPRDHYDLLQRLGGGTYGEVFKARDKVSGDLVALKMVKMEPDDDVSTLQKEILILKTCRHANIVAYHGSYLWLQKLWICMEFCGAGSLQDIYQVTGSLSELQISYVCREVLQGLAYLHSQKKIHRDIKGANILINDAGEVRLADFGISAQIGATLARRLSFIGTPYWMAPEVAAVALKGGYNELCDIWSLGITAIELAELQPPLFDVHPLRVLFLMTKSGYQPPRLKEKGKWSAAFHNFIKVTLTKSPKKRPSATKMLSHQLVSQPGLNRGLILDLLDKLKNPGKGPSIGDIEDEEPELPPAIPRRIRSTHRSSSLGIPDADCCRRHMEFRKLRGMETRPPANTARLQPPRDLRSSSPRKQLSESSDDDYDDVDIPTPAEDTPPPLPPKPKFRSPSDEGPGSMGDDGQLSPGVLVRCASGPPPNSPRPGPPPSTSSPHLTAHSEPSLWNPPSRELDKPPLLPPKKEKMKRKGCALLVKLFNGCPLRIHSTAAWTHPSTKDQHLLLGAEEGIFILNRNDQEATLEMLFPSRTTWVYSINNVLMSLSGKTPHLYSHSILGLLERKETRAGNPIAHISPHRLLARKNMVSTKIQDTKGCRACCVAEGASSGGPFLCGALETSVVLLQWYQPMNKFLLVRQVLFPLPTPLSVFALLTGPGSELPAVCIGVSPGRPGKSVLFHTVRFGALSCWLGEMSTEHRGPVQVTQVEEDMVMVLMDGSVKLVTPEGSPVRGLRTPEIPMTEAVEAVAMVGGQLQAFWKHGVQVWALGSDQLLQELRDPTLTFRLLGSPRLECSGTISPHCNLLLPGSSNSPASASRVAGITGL

SMILES | inhibition at 1 µM [%] | inhibition at 10 µM [%] | IC50 [µM]
COCCn1ccc(N/C(C)=C2\C(=O)Nc3cnc(-c4cnccc4C)cc32)n1 [Example 143, (Z)-3-(1-((1-(2-Methoxyethyl)-1H-pyrazol-3-yl)amino)ethylidene)-5-(4-methylpyridin-3-yl)-1H-pyrrolo[2,3-c]pyridin-2(3H)-one] | 80.4 | 83.8 | < 0.05
COc1cccc(F)c1-c1cc2c(cn1)NC(=O)/C2=C(/C)Nc1ccn(CC(C)(C)O)n1 [Example 144, (Z)-5-(2-Fluoro-6-methoxyphenyl)-3-(1-((1-(2-hydroxy-2-methylpropyl)-1H-pyrazol-3-yl)amino)ethylidene)-1H-pyrrolo[2,3-c]pyridin-2(3H)-one] | 80.5 | 84.6 | < 0.05
C/C(Nc1ccn(C(C)(C)CO)n1)=C1/C(=O)Nc2cnc(-c3cnccc3C)cc21 [Example 145, (Z)-3-(1-((1-(1-Hydroxy-2-methylpropan-2-yl)-1H-pyrazol-3-yl)amino)ethylidene)-5-(4-methylpyridin-3-yl)-1H-pyrrolo[2,3-c]pyridin-2(3H)-one] | 79.4 | 83.9 | < 0.05
C/C(Nc1cc2n(n1)CCOC2)=C1/C(=O)Nc2cnc(-c3cnccc3C)cc21 [Example 146, (Z)-3-(1-((6,7-Dihydro-4H-pyrazolo[5,1-c][1,4]oxazin-2-yl)amino)ethylidene)-5-(4-methylpyridin-3-yl)-1H-pyrrolo[2,3-c]pyridin-2(3H)-one] | 80.2 | 88.7 | < 0.05
C/C(Nc1ccn(C2CCN(C3COC3)CC2)n1)=C1/C(=O)Nc2cnc(-c3cnccc3C)cc21 [Example 147, (Z)-5-(4-Methylpyridin-3-yl)-3-(1-((1-(1-(oxetan-3-yl)piperidin-4-yl)-1H-pyrazol-3-yl)amino)ethylidene)-1H-pyrrolo[2,3-c]pyridin-2(3H)-one] | 74.9 | 75.9 | < 0.05
C/C(Nc1cnn(C)c1)=C1/C(=O)Nc2cnc(-c3cncc(F)c3C)cc21 [Example 148, (Z)-5-(5-Fluoro-4-methylpyridin-3-yl)-3-(1-((1-methyl-1H-pyrazol-4-yl)amino)ethylidene)-1H-pyrrolo[2,3-c]pyridin-2(3H)-one] | 82.4 | 94 | < 0.05
C/C(Nc1cc2n(n1)CC(=O)N(C(C)C)C2)=C1/C(=O)Nc2cnc(-c3cnccc3C)cc21 [Example 149, (Z)-5-Isopropyl-2-((1-(5-(4-methylpyridin-3-yl)-2-oxo-1H-pyrrolo[2,3-c]pyridin-3(2H)-ylidene)ethyl)amino)-4,5-dihydropyrazolo[1,5-a]pyrazin-6(7H)-one] | 78.7 | 81.7 | < 0.05
C/C(Nc1cc(C(C)(C)O)n(C)n1)=C1/C(=O)Nc2cnc(-c3cnccc3C)cc21 [Example 150, (Z)-3-(1-((5-(2-Hydroxypropan-2-yl)-1-methyl-1H-pyrazol-3-yl)amino)ethylidene)-5-(4-methylpyridin-3-yl)-1H-pyrrolo[2,3-c]pyridin-2(3H)-one] | 86.7 | 86.1 | < 0.05
C/C(Nc1cnn(C)c1)=C1/C(=O)Nc2cc(C#N)c(-c3cnccc3C)cc21 [Example 151, (Z)-3-(1-((1-Methyl-1H-pyrazol-4-yl)amino)ethylidene)-5-(4-methylpyridin-3-yl)-2-oxoindoline-6-carbonitrile] | 85.2 | 65.2 | < 0.05
C/C(Nc1cc(C2CC2)n(C)n1)=C1/C(=O)Nc2cnc(-c3cnccc3C)cc21 [Example 152, (Z)-3-(1-((5-Cyclopropyl-1-methyl-1H-pyrazol-3-yl)amino)ethylidene)-5-(4-methylpyridin-3-yl)-1H-pyrrolo[2,3-c]pyridin-2(3H)-one] | 74.3 | 70.4 | < 0.05
C/C(Nc1cnn(C[C@@H](C)O)c1)=C1/C(=O)Nc2cnc(-c3cnccc3C)cc21 [Example 153, (R,Z)-3-(1-((1-(2-Hydroxypropyl)-1H-pyrazol-4-yl)amino)ethylidene)-5-(4-methylpyridin-3-yl)-1H-pyrrolo[2,3-c]pyridin-2(3H)-one] | 72.5 | 80.9 | < 0.05
C/C(Nc1ccn(C)n1)=C1/C(=O)Nc2cnc(-c3cncc(F)c3C)cc21 [Example 154, (Z)-5-(5-Fluoro-4-methylpyridin-3-yl)-3-(1-((1-methyl-1H-pyrazol-3-yl)amino)ethylidene)-1H-pyrrolo[2,3-c]pyridin-2(3H)-one] | 69 | 82.5 | 0.1 to 0.5
CNC(=O)C(F)(F)n1ccc(N/C(C)=C2\C(=O)Nc3cnc(-c4cnccc4C)cc32)n1 [Example 155, (Z)-2,2-Difluoro-N-methyl-2-(3-((1-(5-(4-methylpyridin-3-yl)-2-oxo-1H-pyrrolo[2,3-c]pyridin-3(2H)-ylidene)ethyl)amino)-1H-pyrazol-1-yl)acetamide] | 65.1 | 68.8 | < 0.05
C/C(Nc1cnn(C[C@H](C)O)c1)=C1/C(=O)Nc2cnc(-c3cnccc3C)cc21 [Example 156, (S,Z)-3-(1-((1-(2-Hydroxypropyl)-1H-pyrazol-4-yl)amino)ethylidene)-5-(4-methylpyridin-3-yl)-1H-pyrrolo[2,3-c]pyridin-2(3H)-one] | 60.6 | 80 | 0.05 to 0.1
C/C(Nc1ccn(C)n1)=C1/C(=O)Nc2cccc(-c3cnccc3C)c21 [Example 157, (Z)-3-(1-((1-Methyl-1H-pyrazol-3-yl)amino)ethylidene)-4-(4-methylpyridin-3-yl)indolin-2-one] | 54.5 | 66.5 | –
C/C(Nc1cnn(C)c1)=C1/C(=O)Nc2cnc(-c3cccnc3C)cc21 [Example 158, (Z)-3-(1-((1-Methyl-1H-pyrazol-4-yl)amino)ethylidene)-5-(2-methylpyridin-3-yl)-1H-pyrrolo[2,3-c]pyridin-2(3H)-one] | 74.7 | 91.1 | 0.1 to 0.5
C/C(Nc1cnn(C)c1)=C1/C(=O)Nc2cccc(-c3cnccc3C)c21 [Example 159, (Z)-3-(1-((1-Methyl-1H-pyrazol-4-yl)amino)ethylidene)-4-(4-methylpyridin-3-yl)indolin-2-one] | 62.8 | 87.4 | > 0.5
C/C(Nc1cnn([C@H](C)C#N)c1)=C1/C(=O)Nc2cnc(-c3cnccc3C)cc21 [Example 160, (R,Z)-2-(4-((1-(5-(4-Methylpyridin-3-yl)-2-oxo-1H-pyrrolo[2,3-c]pyridin-3(2H)-ylidene)ethyl)amino)-1H-pyrazol-1-yl)propanenitrile] | 85 | 78.4 | < 0.05
C/C(Nc1cnn(C)c1)=C1/C(=O)Nc2ccc(-c3cnccc3C)cc21 [Example 161, (Z)-3-(1-((1-Methyl-1H-pyrazol-4-yl)amino)ethylidene)-5-(4-methylpyridin-3-yl)indolin-2-one] | 81.2 | 81 | < 0.05
